{"source": "paper PMC6222927", "about": "“Aminobenzosuberone Scaffold as a Modular Chemical Tool for the Inhibition of Therapeutically Relevant M1 Aminopeptidases” (Molecules : A Journal of Synthetic Chemistry and Natural …, 2018)", "key": {"[1]": {"molecular_target": "aminopeptidase from A. proteolytica (AAP)", "parameters": "method as in PMID 21843945", "details": "ref 58; cited from earlier work"}, "E. coli rEcPepN": {"molecular_target": "E. coli rEcPepN (Escherichia coli, UniProt P04825)", "sequence (P04825 whole entry)": "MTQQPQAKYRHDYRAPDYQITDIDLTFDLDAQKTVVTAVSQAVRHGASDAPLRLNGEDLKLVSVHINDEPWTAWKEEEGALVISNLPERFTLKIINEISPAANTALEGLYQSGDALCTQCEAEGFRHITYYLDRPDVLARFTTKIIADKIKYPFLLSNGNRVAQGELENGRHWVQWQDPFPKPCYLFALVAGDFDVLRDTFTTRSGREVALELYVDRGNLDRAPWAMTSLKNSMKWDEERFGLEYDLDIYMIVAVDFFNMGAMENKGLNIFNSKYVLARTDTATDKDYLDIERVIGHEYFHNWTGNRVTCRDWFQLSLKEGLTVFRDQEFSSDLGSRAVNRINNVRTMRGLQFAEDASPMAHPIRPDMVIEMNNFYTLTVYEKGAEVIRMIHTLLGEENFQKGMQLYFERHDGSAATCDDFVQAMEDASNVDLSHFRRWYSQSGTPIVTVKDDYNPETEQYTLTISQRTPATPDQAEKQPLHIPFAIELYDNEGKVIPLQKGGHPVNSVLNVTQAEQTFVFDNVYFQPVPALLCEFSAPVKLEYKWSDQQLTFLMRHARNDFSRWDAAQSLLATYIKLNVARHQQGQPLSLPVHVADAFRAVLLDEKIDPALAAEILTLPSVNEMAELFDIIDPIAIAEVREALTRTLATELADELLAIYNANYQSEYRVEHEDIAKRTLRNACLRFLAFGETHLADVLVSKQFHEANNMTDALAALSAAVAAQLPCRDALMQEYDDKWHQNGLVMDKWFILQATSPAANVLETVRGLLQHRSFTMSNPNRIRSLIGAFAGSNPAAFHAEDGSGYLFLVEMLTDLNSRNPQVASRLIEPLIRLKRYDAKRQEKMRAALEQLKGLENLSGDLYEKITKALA", "test": "rEcPepN inhibition, Leu-pNA substrate, Dixon method", "type": "biochemical", "protocol": "Enzyme activity assays were carried out in 10 mM Tris-HCl buffer at pH 7.5 with 150 mM NaCl, enzyme, 100 µM substrate (Leu-pNA) in a 100 μL reaction at 37 °C. The absorbance was read at 405 nm. Concentrations ranging from 1 nM to 100 μM of inhibitors (dissolved in DMSO) were incubated with each of the enzymes ([…]) for 30 min at 37 °C in a 96 well plate. After addition of the substrate, immediate increase in absorption was measured. All inhibition assays were performed in triplicates and initial velocities were measured. Percentage inhibition and log values of inhibitor concentrations were plotted using SigmaPlot to determine IC50 values. Ki values were determined by the Dixon method. The assay consists of reaction buffer, enzyme and varied concentrations of Leu-pNA (25, 50, 100, 200 and 400 µM). […] Data were plotted as 1/rate versus inhibitor concentration for each substrate concentration and a linear fit was calculated by non-linear regression using SigmaPlot12.5. All the reactions were performed in triplicates, SD values were reported."}, "[2]": {"molecular_target": "human puromycine sensitive aminopeptidase (rHsPSA) (Homo sapiens, UniProt P55786)", "sequence (P55786 whole entry)": "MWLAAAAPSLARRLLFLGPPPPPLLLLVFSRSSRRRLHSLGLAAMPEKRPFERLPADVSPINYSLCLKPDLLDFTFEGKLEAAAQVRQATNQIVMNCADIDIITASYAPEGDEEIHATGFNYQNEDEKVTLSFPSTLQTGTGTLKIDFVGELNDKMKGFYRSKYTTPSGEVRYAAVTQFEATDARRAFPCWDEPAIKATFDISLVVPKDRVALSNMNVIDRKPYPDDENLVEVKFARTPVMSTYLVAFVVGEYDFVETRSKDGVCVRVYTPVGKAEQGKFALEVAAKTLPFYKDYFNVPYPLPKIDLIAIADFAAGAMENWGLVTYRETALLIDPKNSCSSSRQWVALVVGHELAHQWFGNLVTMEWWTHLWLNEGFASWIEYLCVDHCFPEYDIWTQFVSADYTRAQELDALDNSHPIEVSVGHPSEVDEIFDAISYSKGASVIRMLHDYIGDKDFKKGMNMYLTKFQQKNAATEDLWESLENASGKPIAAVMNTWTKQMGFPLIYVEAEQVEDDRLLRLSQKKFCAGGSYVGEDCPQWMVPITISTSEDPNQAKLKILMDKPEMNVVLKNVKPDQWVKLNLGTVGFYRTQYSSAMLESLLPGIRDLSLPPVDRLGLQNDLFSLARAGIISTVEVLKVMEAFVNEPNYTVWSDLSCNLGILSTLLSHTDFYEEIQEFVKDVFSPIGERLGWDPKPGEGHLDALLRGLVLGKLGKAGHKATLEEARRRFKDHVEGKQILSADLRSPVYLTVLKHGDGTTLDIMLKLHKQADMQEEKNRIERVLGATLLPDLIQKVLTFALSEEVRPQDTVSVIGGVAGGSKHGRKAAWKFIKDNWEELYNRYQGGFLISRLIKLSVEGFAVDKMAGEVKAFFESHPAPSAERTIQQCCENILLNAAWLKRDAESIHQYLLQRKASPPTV", "test": "rHsPSA inhibition, Leu-pNA substrate, Dixon method", "type": "biochemical", "details": "triplicate, SD", "protocol": "Enzyme activity assays were carried out in 10 mM Tris-HCl buffer at pH 7.5 with 150 mM NaCl, enzyme, 100 µM substrate (Leu-pNA) in a 100 μL reaction at 37 °C. The absorbance was read at 405 nm. Concentrations ranging from 1 nM to 100 μM of inhibitors (dissolved in DMSO) were incubated with each of the enzymes ([…]) for 30 min at 37 °C in a 96 well plate. After addition of the substrate, immediate increase in absorption was measured. All inhibition assays were performed in triplicates and initial velocities were measured. Percentage inhibition and log values of inhibitor concentrations were plotted using SigmaPlot to determine IC50 values. Ki values were determined by the Dixon method. The assay consists of reaction buffer, enzyme and varied concentrations of Leu-pNA (25, 50, 100, 200 and 400 µM). […]. All the reactions were performed in triplicates, SD values were reported."}, "P. falciparum rPfAM17": {"molecular_target": "T1, P. falciparum rPfAM17 (Plasmodium falciparum, UniProt Q8IL11)", "T1 construct": "made in house; host or cells: Escherichia coli Rosetta 2 (DE3)", "T1 sequence (Q8IL11 1-605)": "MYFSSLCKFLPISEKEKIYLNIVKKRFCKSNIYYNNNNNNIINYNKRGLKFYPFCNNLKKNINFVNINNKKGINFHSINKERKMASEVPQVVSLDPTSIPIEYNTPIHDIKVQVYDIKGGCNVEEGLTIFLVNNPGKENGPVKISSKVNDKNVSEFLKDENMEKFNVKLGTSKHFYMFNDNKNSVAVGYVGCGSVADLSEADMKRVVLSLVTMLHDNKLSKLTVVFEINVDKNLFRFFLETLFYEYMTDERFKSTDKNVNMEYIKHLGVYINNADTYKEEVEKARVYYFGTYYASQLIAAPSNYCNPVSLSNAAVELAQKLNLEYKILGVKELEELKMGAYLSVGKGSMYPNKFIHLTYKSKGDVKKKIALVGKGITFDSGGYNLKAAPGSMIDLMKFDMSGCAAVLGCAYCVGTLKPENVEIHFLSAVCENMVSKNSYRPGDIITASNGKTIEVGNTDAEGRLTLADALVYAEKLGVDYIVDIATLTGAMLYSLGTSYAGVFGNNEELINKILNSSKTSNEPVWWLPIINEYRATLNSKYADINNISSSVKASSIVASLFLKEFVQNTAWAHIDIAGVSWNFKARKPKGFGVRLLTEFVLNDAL", "test": "rPfAM17 inhibition, Leu-pNA substrate, Dixon plots", "type": "biochemical", "protocol": "Tests were carried out on HP/Agilent UV-Visible diode array spectrophotometer 8453 (HP/Agilent, Santa Clara, CA, USA), at 30 °C in Tris HCl 50 mM pH 7.4 for rPfAM1 and pH 8 for rPfAM17, with a final DMSO concentration of 1%. […]. […] Initial velocities were measured with increasing concentrations of inhibitors and Ki values were determined by Dixon plots in triplicate."}, "[3]": {"molecular_target": "T2, human endoplasmic reticulum aminopeptidase 2 (rHsERAP2) (Homo sapiens, UniProt Q6P179)", "T2 construct": "made in house; host or cells: Hi5 insect cells (baculovirus produced in sf9)", "T2 sequence (Q6P179 whole entry)": "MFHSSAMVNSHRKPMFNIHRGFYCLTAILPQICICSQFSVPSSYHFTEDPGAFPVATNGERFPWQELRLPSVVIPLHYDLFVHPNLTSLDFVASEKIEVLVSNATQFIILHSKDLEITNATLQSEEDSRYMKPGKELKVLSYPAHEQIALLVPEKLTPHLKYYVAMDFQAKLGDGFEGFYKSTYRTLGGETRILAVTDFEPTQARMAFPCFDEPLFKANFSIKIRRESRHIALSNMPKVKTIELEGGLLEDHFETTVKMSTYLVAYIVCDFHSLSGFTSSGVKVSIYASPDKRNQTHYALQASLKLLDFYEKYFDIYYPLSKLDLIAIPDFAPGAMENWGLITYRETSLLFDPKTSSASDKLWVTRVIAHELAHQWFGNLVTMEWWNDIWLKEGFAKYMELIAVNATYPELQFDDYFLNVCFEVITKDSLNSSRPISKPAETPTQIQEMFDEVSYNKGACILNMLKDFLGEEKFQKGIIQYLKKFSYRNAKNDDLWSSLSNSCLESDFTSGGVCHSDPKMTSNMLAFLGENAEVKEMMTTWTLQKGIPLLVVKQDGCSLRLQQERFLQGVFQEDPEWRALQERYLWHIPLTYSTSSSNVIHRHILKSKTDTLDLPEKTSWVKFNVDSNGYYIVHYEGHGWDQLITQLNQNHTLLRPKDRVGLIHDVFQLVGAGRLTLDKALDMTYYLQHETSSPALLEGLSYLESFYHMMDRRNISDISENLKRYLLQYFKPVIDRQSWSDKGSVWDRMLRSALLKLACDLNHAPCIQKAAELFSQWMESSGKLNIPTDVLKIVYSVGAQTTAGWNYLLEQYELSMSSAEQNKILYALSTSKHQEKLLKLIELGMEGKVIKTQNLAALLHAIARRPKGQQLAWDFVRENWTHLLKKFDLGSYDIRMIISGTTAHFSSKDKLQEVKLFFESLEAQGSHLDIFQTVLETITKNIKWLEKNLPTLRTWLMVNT", "test": "rHsERAP2 inhibition, R-AMC fluorigenic substrate", "type": "biochemical", "details": "50 µM R-AMC", "protocol": "(§1) The enzymatic activity of HsERAP1, HsERAP2 and HsIRAP was determined by following the time-dependent increase in fluorescence at 460 nm (excitation: 380 nm) of the fluorigenic substrates L-Leucine-7-amido-4-methyl coumarin (L-AMC; Sigma, Darmstatd, Germany) for HsERAP1 and HsIRAP and L-arginyl-7-amido-4-methyl coumarin (R-AMC; Sigma) for HsERAP2. […] The reaction was followed for 10 min at room temperature and the remaining enzymatic activity was calculated by measuring the slope of the time course."}, "[4]": {"test": "Octanol/water partition coefficient (logD7.4) by reversed-phase HPLC", "details": "pH 7.4", "quoted_text": "The flow was 0.9 mL/min. The aminobenzosuberone derivatives were dissolved at 0.4 µM in methanol. The standards were also dissolved in methanol. Column void volume was estimated from the retention time of uracil, which was included as a non-retained internal reference with each injection."}, "[5]": {"molecular_target": "human leukotriene A4 hydrolase (rHsLTA4H)", "parameters": "method as in PMID 21843945", "details": "ref 58; cited from earlier work"}, "[6]": {"molecular_target": "T3, human Leucyl-cystinyl aminopeptidase (rHsIRAP) (Homo sapiens, UniProt Q9UIQ6)", "T3 construct": "made in house; host or cells: Hi5 insect cells (baculovirus produced in sf9)", "T3 sequence (Q9UIQ6 155-1025 limits assumed)": "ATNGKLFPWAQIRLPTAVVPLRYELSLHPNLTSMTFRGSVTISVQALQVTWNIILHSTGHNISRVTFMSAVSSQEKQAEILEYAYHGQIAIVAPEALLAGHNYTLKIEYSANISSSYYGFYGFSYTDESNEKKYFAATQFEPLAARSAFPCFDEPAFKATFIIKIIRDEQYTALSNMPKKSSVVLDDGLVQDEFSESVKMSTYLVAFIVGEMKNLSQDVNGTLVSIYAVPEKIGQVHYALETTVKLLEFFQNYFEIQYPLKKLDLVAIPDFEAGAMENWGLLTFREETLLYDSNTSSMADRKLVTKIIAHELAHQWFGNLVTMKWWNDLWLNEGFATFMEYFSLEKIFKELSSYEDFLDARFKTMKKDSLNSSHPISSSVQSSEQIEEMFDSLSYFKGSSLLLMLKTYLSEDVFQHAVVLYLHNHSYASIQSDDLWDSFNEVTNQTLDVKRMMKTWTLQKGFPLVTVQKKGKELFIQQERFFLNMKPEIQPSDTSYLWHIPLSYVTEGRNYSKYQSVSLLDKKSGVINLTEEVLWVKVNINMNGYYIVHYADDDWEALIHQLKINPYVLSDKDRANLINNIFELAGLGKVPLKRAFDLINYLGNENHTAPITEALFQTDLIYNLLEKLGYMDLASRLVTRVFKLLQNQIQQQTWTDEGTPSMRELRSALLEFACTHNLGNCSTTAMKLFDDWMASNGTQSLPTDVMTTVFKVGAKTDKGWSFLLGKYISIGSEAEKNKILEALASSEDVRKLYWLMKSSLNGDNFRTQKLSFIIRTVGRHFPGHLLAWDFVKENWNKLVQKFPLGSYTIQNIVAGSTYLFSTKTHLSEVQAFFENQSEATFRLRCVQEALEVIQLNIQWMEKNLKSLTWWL", "test": "rHsIRAP inhibition, L-AMC fluorigenic substrate", "type": "biochemical", "details": "50 µM L-AMC; read-out: IC50 rHsIRAP", "protocol": "The enzymatic activity of HsERAP1, HsERAP2 and HsIRAP was determined by following the time-dependent increase in fluorescence at 460 nm (excitation: 380 nm) of the fluorigenic substrates L-Leucine-7-amido-4-methyl coumarin (L-AMC; Sigma, Darmstatd, Germany) for HsERAP1 and HsIRAP and L-arginyl-7-amido-4-methyl coumarin (R-AMC; Sigma) for HsERAP2. […]. The reaction was followed for 10 min at room temperature and the remaining enzymatic activity was calculated by measuring the slope of the time course. […]"}, "[7]": {"molecular_target": "T4, human endoplasmic reticulum aminopeptidase 1 (rHsERAP1) (Homo sapiens, UniProt Q9NZ08)", "T4 construct": "made in house; host or cells: Hi5 insect cells (baculovirus produced in sf9)", "T4 sequence (Q9NZ08 whole entry)": "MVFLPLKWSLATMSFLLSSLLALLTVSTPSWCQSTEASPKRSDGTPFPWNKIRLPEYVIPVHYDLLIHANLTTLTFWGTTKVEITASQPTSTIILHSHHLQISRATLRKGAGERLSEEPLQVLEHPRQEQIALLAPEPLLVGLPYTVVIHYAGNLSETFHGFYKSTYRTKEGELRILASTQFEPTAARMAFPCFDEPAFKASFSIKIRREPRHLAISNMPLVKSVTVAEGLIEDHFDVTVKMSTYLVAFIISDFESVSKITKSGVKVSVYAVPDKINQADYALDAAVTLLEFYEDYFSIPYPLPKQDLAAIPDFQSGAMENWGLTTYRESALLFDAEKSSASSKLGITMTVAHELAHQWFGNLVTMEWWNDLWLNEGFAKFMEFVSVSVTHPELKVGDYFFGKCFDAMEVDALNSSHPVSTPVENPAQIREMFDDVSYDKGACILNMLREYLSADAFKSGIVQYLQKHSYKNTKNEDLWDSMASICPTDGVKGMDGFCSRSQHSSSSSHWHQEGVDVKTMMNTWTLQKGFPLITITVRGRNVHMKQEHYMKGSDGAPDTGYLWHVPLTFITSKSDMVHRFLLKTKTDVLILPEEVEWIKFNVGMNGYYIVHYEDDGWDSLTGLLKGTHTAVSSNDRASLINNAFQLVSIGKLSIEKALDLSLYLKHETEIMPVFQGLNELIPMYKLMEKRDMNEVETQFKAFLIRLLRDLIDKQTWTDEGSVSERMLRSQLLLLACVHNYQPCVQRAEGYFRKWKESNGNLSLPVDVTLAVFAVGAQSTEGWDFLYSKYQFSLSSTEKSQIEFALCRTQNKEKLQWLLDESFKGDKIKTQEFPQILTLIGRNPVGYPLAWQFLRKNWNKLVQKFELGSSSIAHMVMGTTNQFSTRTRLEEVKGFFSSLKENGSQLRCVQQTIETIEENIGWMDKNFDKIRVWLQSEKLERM", "test": "rHsERAP1 inhibition, L-AMC fluorigenic substrate", "type": "biochemical", "details": "50 µM L-AMC", "protocol": "as §1"}}}
{"smiles": "NC1CCc2c(Br)cccc2CC1=O", "note": "(stereo not drawn) [21e]", "values": [{"measurement": "Ki", "setting": "[1]", "result": "> 100", "unit": "µM"}, {"measurement": "Ki", "setting": "E. coli rEcPepN", "result": "4.59 ± 0.17", "unit": "µM"}, {"measurement": "Ki", "setting": "[2]", "result": "1.07 ± 0.063", "unit": "µM"}, {"measurement": "Ki", "setting": "P. falciparum rPfAM17", "result": "> 100", "unit": "µM"}, {"measurement": "IC50", "setting": "[3]", "result": "104 ± 7", "unit": "µM"}, {"measurement": "chromatographic logD", "setting": "[4]", "result": 1.41}, {"measurement": "Ki", "setting": "[5]", "result": "> 100", "unit": "µM"}, {"measurement": "IC50", "setting": "[6]", "result": "2.6 ± 0.2", "unit": "µM"}, {"measurement": "IC50", "setting": "[7]", "result": "56 ± 7", "unit": "µM"}]}
